Measurements as given in patent US20240174690A1, “ANNULATED 2-AMINO-3-CYANO THIOPHENES AND DERIVATIVES FOR THE TREATMENT OF CANCER” (BOEHRINGER INGELHEIM INTERNATIONAL GMBH, priority 2021, published 2024).
Values after ≈ are worked out from the molar mass of the structure shown. Where two headings read alike, the source gives them in different places.

How the values were obtained:
[1] = tested on: KRAS G12C-dependent Ba/F3 cells; test: Ba/F3 proliferation assay, KRAS G12C; assay type: cell-based; settings: Mus musculus, BaF3, 72 h, AlamarBlue
Procedure, shortened: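 Proliferation of mutant-KRAS-driven Ba/F3 cells cultured without IL-3 is followed with AlamarBlue after compound addition. Curves are fitted from duplicate wells.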

NCI-H2122 cells = test: NCI-H2122 CTG proliferation assay (120 h) (NSCLC, G12C); assay type: cell-based; settings: Homo sapiens
Procedure, shortened: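 Proliferation was read by CellTiter-Glo luminescence after 120 h of compound exposure, starting one day after seeding 200 NCI-H2122 (G12C) cells per well in RPMI/10% FCS. RLU relative to DMSO wells gave percent viability, and four-parameter nonlinear regression gave IC50.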

AsPC-1 cells = test: AsPC-1 CTG proliferation assay (120 h) (pancreatic cancer, G12D); assay type: cell-based; settings: Homo sapiens, ASPC1
Procedure, shortened: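 CellTiter-Glo luminescence, normalised to DMSO wells, measured viability after 120 h compound exposure. Cells were AsPC-1 pancreatic cancer (G12D) plated at 2000 per well in RPMI/10% FCS the day before dosing. IC50 derived by four-parameter regression.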

LOVO cells = test: LOVO CTG proliferation assay (120 h) (CRC, G13D); assay type: cell-based; settings: Homo sapiens, CTG 120 h
Procedure, shortened: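 IC50 comes from a four-parameter fit of CellTiter-Glo viability, expressed as RLU relative to DMSO wells. Compound exposure lasted 120 h in LOVO cells seeded the day before at 1000 cells/well in DMEM with 10% fetal calf serum.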

[2] = Plasma protein binding assay (PPB), equilibrium dialysis, 10% FCS in PBS; assay type: in vitro ADME; settings: bovine, read-out: PPB 10% FCS (% fu)
Procedure, shortened: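 Test compound (1-10 μmol/L) in 10% FCS in PBS was dialysed for 3-5 h at 37° C versus PBS ± dextran across a semipermeable membrane. LC-MS of both compartments after protein precipitation gave Cserum and Cbuffer, from which the unbound fraction fu was derived.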

[3] = Solubility measurement (DMSO solution method), McIlvaine buffer pH 4.5 or 6.8; assay type: physicochemical; settings: aqueous buffer, kinetic from dmso stock, DMSO stock diluted to 250 μM, 24 h shaking at ambient temperature
Procedure, shortened: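 Filtrate concentration by LC-UV, calibrated to a known-concentration reference dissolved completely in acetonitrile/water (1:1). Samples came from 250 µM final dilutions of DMSO stock in pH 4.5 or 6.8 McIlvaine buffer, shaken 24 h at ambient temperature, then filtered.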

[4] = McIlvaine buffer pH 4.5, read-out: solubility pH 4.5
[5] = McIlvaine buffer pH 6.8, read-out: solubility pH 6.8

| SMILES | IC50 [1] | IC50 (NCI-H2122 cells) | IC50 (AsPC-1 cells) | IC50 (LOVO cells) | fraction unbound [2] | solubility at 24 h [3, 4] | solubility at 24 h [3, 5] |
| --- | --- | --- | --- | --- | --- | --- | --- |
| C[C@H](Oc1cc(-n2ccc(C(=O)NC3COC3)n2)nc(-c2noc3c2CCC[C@@]32CCCc3sc(N)c(C#N)c32)n1)[C@@H]1CCCN1C [II-25] | 3 nM | 33 nM | 891 nM | 63 nM | 0.15 | 124 µg/mL (≈ 189 µM) | 73 µg/mL (≈ 111 µM) |
| C[C@H](Oc1cc(-n2ccc(C(=O)NC3(C)COC3)n2)nc(-c2noc3c2CCC[C@@]32CCCc3sc(N)c(C#N)c32)n1)[C@@H]1CCCN1C [II-26] | 5 nM | 143 nM | 1380 nM | 109 nM | 0.24 | > 194 µg/mL | 62 µg/mL (≈ 92.6 µM) |
| C[C@H](Oc1cc(-c2ccn(C)n2)nc(-c2noc3c2CCC[C@@]32CCCc3sc(N)c(C#N)c32)n1)[C@@H]1C[C@@H](F)CN1C [II-27] | 18 nM | 898 nM | 4100 nM | 345 nM | 0.05 | 108 µg/mL (≈ 183 µM) | < 1 µg/mL |
| C[C@H](Oc1cc(-c2cnn(C)n2)nc(-c2noc3c2CCC[C@@]32CCCc3sc(N)c(C#N)c32)n1)[C@@H]1C[C@@H](F)CN1C [II-28] | 35 nM | 9480 nM | 5070 nM | 720 nM | 0.09 | > 133 µg/mL | < 1 µg/mL |
| C[C@H]1CN(C)CCCN1c1cc(N2CCN(C)CC2)nc(-c2noc3c2CCC[C@@]32CCCc3sc(N)c(C#N)c32)n1 [II-30] | 1050 nM | 3550 nM | 2380 nM | > 25000 nM | 0.64 | > 136 µg/mL | > 125 µg/mL |
| C[C@H](Oc1cc(N2CC3CCC(C2)N3)nc(-c2noc3c2CCC[C@@]32CCCc3sc(N)c(C#N)c32)n1)[C@@H]1CCCN1C [II-34] | 527 nM | 9010 nM | 1420 nM | 2400 nM | 0.37 | > 146 µg/mL | 114 µg/mL (≈ 190 µM) |

Now from value to compound:

| IC50 [1] | IC50 (NCI-H2122 cells) | IC50 (AsPC-1 cells) | IC50 (LOVO cells) | fraction unbound [2] | solubility at 24 h [3, 4] | solubility at 24 h [3, 5] | SMILES |
| --- | --- | --- | --- | --- | --- | --- | --- |
| 69 nM | 2550 nM | 42 nM | 182 nM | 0.63 | > 151 µg/mL | > 133 µg/mL | C[C@H](Oc1cc(N2CCNC3(COC3)C2)nc(-c2noc3c2CCC[C@@]32CCCc3sc(N)c(C#N)c32)n1)[C@@H]1CCCN1C [II-31] |
| 474 nM | 3300 nM | 385 nM | 8320 nM | 0.31 | > 121 µg/mL | 117 µg/mL (≈ 194 µM) | C[C@H](Oc1cc(N2CCNC(C)(C)C2)nc(-c2noc3c2CCC[C@@]32CCCc3sc(N)c(C#N)c32)n1)[C@@H]1CCCN1C [II-32] |
| 330 nM | 3480 nM | 990 nM | 16600 nM | 0.57 | > 146 µg/mL | > 140 µg/mL | C[C@@H]1CN(c2cc(O[C@@H](C)[C@@H]3CCCN3C)nc(-c3noc4c3CCC[C@@]43CCCc4sc(N)c(C#N)c43)n2)C[C@H](C)N1 [II-36] |
| 132 nM | 5500 nM | 1450 nM | 692 nM | 0.71 | > 152 µg/mL | > 152 µg/mL | C[C@H](Oc1cc([C@@H]2CCN(C)C2)nc(-c2noc3c2CCC[C@@]32CCCc3sc(N)c(C#N)c32)n1)[C@@H]1CCCN1C [II-37] |
| 381 nM | 1420 nM | 261 nM | 508 nM | 0.53 | > 140 µg/mL | > 133 µg/mL | C[C@H](Oc1cc(N2CCNC3(CCC3)C2)nc(-c2noc3c2CCC[C@@]32CCCc3sc(N)c(C#N)c32)n1)[C@@H]1CCCN1C [II-40] |
